Key:
A receptor of endothelin = biological target: T1, A receptor of endothelin (Rattus norvegicus, UniProt P26684); assay: Study of the activity on the A receptor of endothelin: displacement of 125I Endothelin on membrane preparation of rat heart (ventricles); format: binding; conditions: Table II, rat heart (ventricles) membranes, 25° C., 60 minutes, read-out: B receptor of endothelin IC50 in nanomoles
T1 construct: A membrane preparation is produced from the heart (ventricles) of a rat; from tissue; host or cells: rat heart (ventricles), membrane preparation
T1 sequence (P26684 21-426): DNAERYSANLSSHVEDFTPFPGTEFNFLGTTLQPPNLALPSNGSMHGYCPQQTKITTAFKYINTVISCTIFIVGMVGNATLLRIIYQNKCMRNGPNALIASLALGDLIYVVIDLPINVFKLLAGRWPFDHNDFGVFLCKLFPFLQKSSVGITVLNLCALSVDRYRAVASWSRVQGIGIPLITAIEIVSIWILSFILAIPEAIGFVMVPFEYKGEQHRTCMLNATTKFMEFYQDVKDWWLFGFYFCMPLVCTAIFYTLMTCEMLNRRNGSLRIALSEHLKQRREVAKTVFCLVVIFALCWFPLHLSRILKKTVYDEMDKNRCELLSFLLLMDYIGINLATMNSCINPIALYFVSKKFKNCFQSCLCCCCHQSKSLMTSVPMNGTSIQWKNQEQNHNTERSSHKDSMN
Protocol: STUDY OF THE ACTIVITY ON THE A RECEPTOR OF ENDOTHELIN
A membrane preparation is produced from the heart (ventricles) of a rat. The tissue is ground up in a POLYTRON in a 50 mM Tris buffer pH=7.4.
After 30 minutes at 25° C. (W.B.) the homogenate is centrifuged at 30000 g for 15 minutes (2 centrifugations with intermediate take up in the Tris buffer pH. 7.4).
(§1) The pellets are resuspended in an incubation buffer (25 mM Tris, 5 microg/ml pepstatin A, 3 microg/ml aprotinin, 0.1 mM PMSF, 3 mM EDTA, 1 mM EGTA pH 7.4).
(§2) 2 ml aliquots are distributed into hemolysis tubes and ^125 I Endothelin (approximately 50000 dpm/tube) and the product to be studied are added. (The product is first tested at 3×10^-5 M three times). When the tested product displaces more than 50% of the radioactivity specifically bound to the receptor, it is tested again according to a range of 7 concentrations so as to determine the concentration which inhibits the radioactivity specifically bound to the receptor by 50%. In this way the 50% inhibitory concentration is determined.
(§3) The non-specific bond is determined by the addition of 10^-6 M endothelin (three times). After incubation at 25° C. for 60 minutes, putting back in the water bath at 0° C., for 5 minutes, filtering under reduced pressure, rinsing with Tris buffer 7.4, the radioactivity is counted in the presence of scintillating Triton.
(§4) The result is expressed directly as the 50% inhibitory concentration (IC50), that is to say as the concentration of product studied expressed in nM, necessary to displace 50% of the specific radioactivity bound to the receptor studied.

B receptor of endothelin = biological target: T2, B receptor of endothelin (Rattus norvegicus, UniProt P21451); assay: Study of the activity on the B receptor of endothelin: displacement of 125I Endothelin on membrane preparation of rat posterior cortex plus cerebellum; format: binding; conditions: Table I, rat posterior cortex plus cerebellum membranes, 25° C., 60 minutes, read-out: B receptor of endothelin IC50 in nanomoles
T2 construct: A membrane preparation is produced from the posterior cortex plus cerebellum of a rat; from tissue; host or cells: rat posterior cortex plus cerebellum, membrane preparation
T2 sequence (P21451 27-442): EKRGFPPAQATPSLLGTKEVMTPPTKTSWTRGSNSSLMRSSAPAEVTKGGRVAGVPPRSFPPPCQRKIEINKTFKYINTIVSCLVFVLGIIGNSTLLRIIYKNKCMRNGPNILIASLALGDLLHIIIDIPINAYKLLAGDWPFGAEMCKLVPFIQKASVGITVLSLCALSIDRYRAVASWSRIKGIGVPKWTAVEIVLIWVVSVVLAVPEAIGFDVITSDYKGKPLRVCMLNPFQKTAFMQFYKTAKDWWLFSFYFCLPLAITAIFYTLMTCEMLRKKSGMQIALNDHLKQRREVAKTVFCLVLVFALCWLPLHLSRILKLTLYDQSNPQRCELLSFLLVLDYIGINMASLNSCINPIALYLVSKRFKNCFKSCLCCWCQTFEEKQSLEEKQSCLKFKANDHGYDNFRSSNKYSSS
Protocol: STUDY OF THE ACTIVITY ON THE B RECEPTOR OF ENDOTHELIN
A membrane preparation is produced from the posterior cortex plus cerebellum of a rat. The tissue is ground up in a POLYTRON in a 50 mM Tris buffer pH=7.4.
After 30 minutes at 25° C. (W.B.) the homogenate is centrifuged at 30000 g for 15 minutes (2 centrifugations with intermediate take-up in the Tris buffer pH. 7.4).
as §1, §2, §3, §4

COc1ccc(Sc2nc(Sc3ccccc3)n(Cc3cc4c(cc3Cl)OCO4)c2C(=O)O)cc1 [Example 15]
IC50 (A receptor of endothelin): 170 nM | IC50 (B receptor of endothelin): 110 nM

COc1ccc(CSc2nc(Sc3ccccc3)n(Cc3cc4c(cc3Cl)OCO4)c2C(=O)O)cc1 [Example 10, 1-((6-chloro-1,3-benzodioxol-5-yl)methyl)-4-(((4-methoxyphenyl)methyl)thio)-2-(phenylthio)-1H-imidazole-5-carboxylic acid]
IC50 (A receptor of endothelin): 167 nM | IC50 (B receptor of endothelin): 420 nM

COc1ccc(Sc2nc(Sc3ccc(OC)cc3)n(Cc3cc4c(cc3Cl)OCO4)c2C(=O)O)cc1 [Example 18, 1-((6-chloro-1,3-benzodioxol-5-yl)methyl)-2,4-bis(4-(methoxyphenyl)thio)-1H-imidazole-5-carboxylic acid]
IC50 (A receptor of endothelin): 230 nM | IC50 (B receptor of endothelin): 88 nM

Reference: patent US5856509A, “Derivatives of imidazole, their preparation process, the new intermediates obtained, their use as medicaments and the pharmaceutical compositions containing them” (Roussel Uclaf, priority 1994, dated 1999)
